Assays:
F3 = assay: Western blot of global histone modifications; assay type: cell-based; details: F3, 5 μM, 96 h
Method: The effects of S2172 on global histone modifications in GSCs were examined using western blot analysis. GSC cells were treated with 5 μM of S2172 since […] of the cells are still viable at this concentration (Fig. 2, Supplementary Fig. S1E). […] Treatment of GSCs with S2172 increased the overall levels of H3K4me2 as well as H3K9me2. However, these changes were not statistically significant (Fig. 2A, B). […]
(§1) instructions. For GSC cells, the CellTiter-Glo 3D Viability Assay (Promega, Madison, WI, USA) was used to measure the living cells. All proliferation experiments were repeated […]
(§2) The density of bands was quantified using ImageJ software (https://imagej.nih.gov/ij/). […]
When mice were scanned with MRI, mice were anesthetized with isoflurane (3% in air) and placed in MRS 3017 Benchtop MRI Systems (MR Solutions, Guildford, UK). Using MRI images, tumor volumes were obtained by compiling tumor areas from all slices that contained tumors and calculated by ImageJ software (https://imagej.nih.gov/ij/) {Towner, […]
A. Left panel: Western blot analysis of H3K4me1, H3K4me2, H3K4me3, and H3K9me2 after treatment with either DMSO or S2172 5μM for 96 h in normal neural stem cell F3 . […] Right panel: Quantification of signal intensities of the Western blot. […]
C. […] Right panel: Quantification of band signal intensities from the Western blot. […]

GSC1228 = assay: Stemness / differentiation marker expression (qPCR, western blot); assay type: cell-based; details: GSC1228, 5 μM, 96 h
Text: Super-enhancers consist of enhancer clusters with abundant binding of transcription factors and are highly enriched with H3K27ac marks. The H3K4me2 increased regions included the MYC locus and H3K4me2 de novo regions comprised Nestin and SOX2 loci (Fig. 2F, Supplementary Fig. S5A). These regions were also identified as super-enhancers in GSCs using data from our previous study (Fig. 2F). Compared to the large increase in H3K4me2 in these regions, changes in H3K4me3 were subtle after S2172 treatment (only 2582 regions were acquired modification) (Fig. 2C). Increasing the me2/me3 ratio at H3K4 is associated with reduced gene expression.
A mRNA expression of stem cell marker genes following 96 h treatment of GSC1228 with S2172 (5 μM). The y-axis indicates the expression change relative to DMSO-treated cells. Error bar indicates the SD. *P < 0.05. B Left panel, western blot analysis of MYC, Nestin, and SOX2 after treatment of GSC1228 with either DMSO or S2172 (5 μM) for 96 h. β-actin (ACTB) was used as the loading control. Right panel, Quantification of band signal intensities from the western blot. C mRNA expression of the differentiation marker gene, GFAP, following treatment of GSC1228 with S2172 (5 μM) for 96 h. The y-axis indicates the expression change relative to DMSO-treated cells. Error bar indicates the SD. D PARP cleavage ratio after treatment of GSC1228, GSC222, and GSC316 with S2172 (5 μM). The ratio was calculated by dividing the cleaved-PARP band intensity by the full length-PARP band intensity. Error bar indicates the SD. *P < 0.05. E Representative Western blot results of RAPR after treatment of GSC1228, GSC222, and GSC316 with either DMSO or S2172 (5 μM) for 96 h. The full length-PARP band (106 kDa) and cleaved PARP band (89 kDa) are shown. β-actin (ACTB) was used as the loading control. n = 4. […]
as §1, §2

SMILES: NC1CCC(NC2CC2c2cc(F)cc(F)c2OCc2ccccc2)CC1 (stereo not shown) [S2172]
- changes in the levels of H3K4me1, H3K4me2, H3K4me3, and H3K9me2 (F3): not significant
- mRNA level of stemness marker genes MYC, Nestin, SOX2 (GSC1228): significantly downregulated
- protein level of MYC, Nestin, SOX2 (GSC1228): tended to be downregulated
- transcription of astrocytic marker GFAP (GSC1228): did not transcriptionally induce

From article PMC11645267, “Novel pharmacologic inhibition of lysine-specific demethylase 1 as a potential therapeutic for glioblastoma” (Cancer Gene Therapy, 2024)
